# US20240124422A1, “MUTANT PI3K-ALPHA INHIBITORS AND THEIR USE AS PHARMACEUTICALS” (Prelude Therapeutics Incorporated, priority 2022, published 2024)
# Read-outs that look alike come from different tables or passages of the source.
# How the values were obtained:
# [1] = tested on: phosphorylation of AKT on Ser473 as a readout of the PI3K pathway in T-47D (heterozygous PIK3CA H1047R) cells; test: PI3K pathway activation assay, pAKT Ser473 HTRF, T-47D cells; assay type: cell-based; details: two hours of treatment
# Method in brief: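 pAKT Ser473 measured by HTRF in SKBR3 (PIK3CA WT) and T-47D (PIK3CA H1047R) cells, 4,000/well. Signal normalised to background and DMSO controls as percent inhibition.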
# [2] = tested on: phosphorylation of AKT on Ser473 as a readout of the PI3K pathway in SKBR3 (PIK3CA WT) cells; test: PI3K pathway activation assay, pAKT Ser473 HTRF, SKBR3 cells; assay type: cell-based; details: two hours of treatment
# Description: The inhibitory activity of compounds was evaluated by measuring phosphorylation of AKT on Ser473 as a readout of the PI3K pathway using HTRF (CisBio catalog number: 64AKSPE). These studies were conducted in the T-47D (heterozygous PIK3CA H1047R) and SKBR3 (PIK3CA WT) cell lines. Cells were maintained in a 37° C. incubator at 5% CO2 in the following media: T-47D: RPMI 1640, ATCC© Modification (Gibco, A10491-01) supplemented with 10% v/v FBS (Gibco, 26140-079), 1% penicillin streptomycin (Gibco, 15140-122), and 7.4 ug/mL insulin (MilliporeSigma, I9278); SKBR3: McCoy's 5a (Modified) Medium (Gibco, 16600-082) supplemented with 10% v/v FBS (Gibco, 26140-079). Cells were seeded in 384-well plates at a density of 4,000 cells/well. Compounds dissolved in DMSO were added using a digital dispense (D300E, Tecan) 10-point serial dilution. After two hours of treatment, cells were lysed for thirty minutes and then incubated with detection reagents per HTRF kit material and manufacturer's instructions. Fluorescence signal was measured with a multimode plate reader (Envision 2105, Perkin Elmer). Fluorescent signal was normalized to background and DMSO controls to obtain percent inhibition/activity for each compound.
Compound,"IC50 ([1]; Homo sapiens, T47D, 2 h)","IC50 ([2]; Homo sapiens, SK-BR-3, 2 h)",IC50 ([1]; read-out: T47D pAKT IC50),IC50 [2]
"[2H]C([2H])([2H])c1cc(C(C)Nc2ccccc2C(=O)O)c2nc(N3CC4CC4C3)n(C)c(=O)c2c1 (single isomer, unassigned) [Example 68]",< 0.5 µM,> 10 µM,–,–
"CNS(=O)(=O)c1ccccc1NC(C)c1cc(C)cc2c(=O)n(C)c(N3Cc4ccccc4C3)nc12 (stereo not drawn) [Example 7, 2-((1-(2-(isoindolin-2-yl)-3,6-dimethyl-4-oxo-3,4-dihydroquinazolin-8-yl)ethyl)amino)-N-methylbenzenesulfonamide]",0.5 to 10 µM,> 10 µM,–,–
"Cc1cc(C(C)Nc2ccc(C#N)cc2C(=O)O)c2nc(N3Cc4ccccc4C3)n(C)c(=O)c2c1 (stereo not drawn) [Example 31, 5-cyano-2-((1-(2-(isoindolin-2-yl)-3,6-dimethyl-4-oxo-3,4-dihydroquinazolin-8-yl)ethyl)amino)benzoic acid]",< 0.5 µM,> 10 µM,–,–
"Cc1cc(C(C)Nc2ccccc2C(=O)O)c2nc(N3CC4CCC3C4)n(C)c(=O)c2c1 (single isomer, unassigned) [Example 100, 2-((1-(2-(2-Azabicyclo[2.2.1]heptan-2-yl)-3,6-dimethyl-4-oxo-3,4-dihydro-quinazolin-8-yl)ethyl)amino)benzoic acid]",–,–,< 0.5 µM,> 10 µM
"[2H]C([2H])([2H])n1c(N2CC3CC3C2)nc2c(C(C)Nc3ccccc3C(=O)O)cc(C)cc2c1=O (single isomer, unassigned) [Example 104, 2-((1-(2-(3-Azabicyclo[3.1.0]hexan-3-yl)-6-methyl-3-(methyl-d3)-4-oxo-3,4-dihydroquinazolin-8-yl)ethyl)amino)benzoic acid]",< 0.5 µM,> 10 µM,–,–
"Cc1cc(C(C)Nc2ccc(F)c(F)c2C(=O)O)c2nc(N3Cc4ccccc4C3)n(CCCF)c(=O)c2c1 (stereo not drawn) [Example 20, 2,3-difluoro-6-((1-(3-(3-fluoropropyl)-2-(isoindolin-2-yl)-6-methyl-4-oxo-3,4-dihydroquinazolin-8-yl)ethyl)amino)benzoic acid]",< 0.5 µM,> 10 µM,–,–
"Cc1cc(C(C)Nc2cc(C#N)ccc2C(=O)O)c2nc(N3CC4CC4C3)n(C)c(=O)c2c1 (stereo not drawn) [Example 23, 2-((1-(2-(3-azabicyclo[3.1.0]hexan-3-yl)-3,6-dimethyl-4-oxo-3,4-dihydro-quinazolin-8-yl)ethyl)amino)-4-cyanobenzoic acid]",0.5 to 10 µM,> 10 µM,–,–
"Cc1cc(C(C)Nc2ccc(F)cc2C(=O)O)c2nc(N3CC4CC4C3)n(C)c(=O)c2c1 (stereo not drawn) [Example 123, 2-[1-[2-(3-Azabicyclo[3.1.0]hexan-3-yl)-3,6-dimethyl-4-oxoquinazolin-8-yl]ethylamino]-5-fluorobenzoic acid]",< 0.5 µM,> 10 µM,–,–
"Cc1cc(C(C)Nc2ccccc2C(=O)O)c2nc(N3Cc4cccnc4C3)n(C)c(=O)c2c1 (single isomer, unassigned) [Example 67, 2-((1-(2-(5,7-Dihydro-6H-pyrrolo[3,4-b]pyridin-6-yl)-3,6-dimethyl-4-oxo-3,4-dihydroquinazolin-8-yl)ethyl)amino)benzoic acid]",< 0.5 µM,> 10 µM,–,–
"CC(Nc1ccccc1C(=O)O)c1cc(F)cc2c(=O)n(C)c(N3CC4CC4C3)nc12 (stereo not drawn) [Example 49, 2-((1-(2-(3-azabicyclo[3.1.0]hexan-3-yl)-6-fluoro-3-methyl-4-oxo-3,4-dihydro-quinazolin-8-yl)ethyl)amino)benzoic acid]",< 0.5 µM,> 10 µM,–,–
"Cc1cc(C(C)Nc2ccccc2C(=O)O)c2nc(N3CCC4(CC4)C3)n(C)c(=O)c2c1 (stereo not drawn) [Example 39, 2-[1-[2-(5-azaspiro[2.4]heptan-5-yl)-3,6-dimethyl-4-oxoquinazolin-8-yl]ethyl-amino]benzoic acid]",< 0.5 µM,> 10 µM,–,–
"Cc1cc(C(C)Nc2ccccc2-c2nnn[nH]2)c2nc(N3Cc4ccccc4C3)n(C)c(=O)c2c1 (stereo not drawn) [Example 9, 8-(1-((2-(1H-tetrazol-5-yl)phenyl)amino)ethyl)-2-(isoindolin-2-yl)-3,6-dimethylquinazolin-4(3H)-one]",0.5 to 10 µM,> 10 µM,–,–
